Data as given in patent US11186589B2, “Cyanoindoline derivatives as NIK inhibitors” (Janssen Pharmaceutica NV, priority 2016, dated 2021).

biological target: NIK/MAP3K14 (Homo sapiens (Human), UniProt Q99558); assay: Inhibition of auto-phosphorylation of recombinant human NF-kappaB-inducing kinase (NIK/MAP3K14) activity (AlphaScreen); format: biochemical; details: averaged values over all measurements on all batches, 25 microM ATP
Procedure: Inhibition of Auto-Phosphorylation of Recombinant Human NF-kappaB-Inducing Kinase ([…]) Activity (AlphaScreen®)
NIK/MAP3K14 auto-phosphorylation activity was measured using the AlphaScreen® (αscreen) format (Perkin Elmer). All compounds tested were dissolved in dimethyl sulfoxide (DMSO) and further dilutions were made in assay buffer. Final DMSO concentration was […] in assays. Assay buffer was 50 mM Tris pH 7.5 containing 1 mM EGTA (ethylene glycol tetraacetic acid), 1 mM DTT (dithiothreitol), 0.1 mM Na3VO4, 5 mM MgCl2, 0.01% Tween® 20. Assays were carried out in 384 well Alphaplates (Perkin Elmer). Incubations consisted of compound, 25 microM Adenosine-5′-triphosphate (ATP), and 0.2 nM NIK/MAP3K14. Incubations were initiated by addition of GST-tagged NIK/MAP3K14 enzyme, carried out for 1 h at 25° C. and terminated by addition of stop buffer containing anti-phospho-[…] Ser176/180 antibody. Protein A Acceptor and Glutathione-Donor beads were added before reading using an EnVision® Multilabel Plate Reader (Perkin Elmer). Signal obtained in the wells containing blank samples was subtracted from all other wells and IC50's were determined by fitting a sigmoidal curve to % inhibition of control versus Log10 compound concentration.

NIK/MAP3K14, sequence (Q99558 whole entry): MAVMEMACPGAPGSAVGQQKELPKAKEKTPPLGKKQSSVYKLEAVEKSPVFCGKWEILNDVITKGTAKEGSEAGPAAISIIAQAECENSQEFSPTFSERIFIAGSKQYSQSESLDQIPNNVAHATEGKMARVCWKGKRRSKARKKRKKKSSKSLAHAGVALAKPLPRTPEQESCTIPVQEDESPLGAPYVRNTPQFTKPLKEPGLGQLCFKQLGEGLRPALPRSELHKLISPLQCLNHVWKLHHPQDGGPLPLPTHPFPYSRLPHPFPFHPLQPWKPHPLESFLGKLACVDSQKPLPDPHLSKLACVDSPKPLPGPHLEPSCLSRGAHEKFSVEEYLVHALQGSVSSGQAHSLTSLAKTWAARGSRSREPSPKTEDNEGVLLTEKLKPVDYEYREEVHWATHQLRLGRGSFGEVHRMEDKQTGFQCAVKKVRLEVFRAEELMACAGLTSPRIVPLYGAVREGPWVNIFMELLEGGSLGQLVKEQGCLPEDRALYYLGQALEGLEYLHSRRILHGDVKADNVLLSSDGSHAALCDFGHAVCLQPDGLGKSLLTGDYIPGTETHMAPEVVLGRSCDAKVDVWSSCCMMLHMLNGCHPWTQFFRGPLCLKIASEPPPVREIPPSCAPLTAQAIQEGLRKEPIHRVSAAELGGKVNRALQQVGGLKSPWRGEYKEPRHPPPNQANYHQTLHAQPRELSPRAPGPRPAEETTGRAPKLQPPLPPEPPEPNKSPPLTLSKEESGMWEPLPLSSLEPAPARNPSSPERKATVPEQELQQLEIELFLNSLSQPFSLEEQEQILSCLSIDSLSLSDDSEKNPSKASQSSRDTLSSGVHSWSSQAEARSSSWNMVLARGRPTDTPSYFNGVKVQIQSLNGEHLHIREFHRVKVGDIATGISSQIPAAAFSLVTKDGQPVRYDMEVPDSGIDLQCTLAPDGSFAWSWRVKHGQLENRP

SMILES	IC50 [nM]
Cc1c(Nc2nccc(-c3cc(C#N)c4c(c3)[C@@](C)(CO)CN4)n2)cc(Cl)c2c1CCN2C(=O)CN(C)C [Compound 16]	1.6
CC1(CO)CNc2c(C#N)cc(-c3ccnc(Nc4ccc5c(c4)C(F)(F)CCO5)n3)cc21 (stereo not shown) [Compound 7]	5.9
CC1(CO)CNc2c(C#N)cc(-c3ccnc(Nc4ccc5c(c4)CC(CO)OC5)n3)cc21 (single isomer, unassigned) [Compound 5]	1.9
CN1CCn2nc(Nc3nccc(-c4cc(C#N)c5c(c4)C(C)(CO)CN5)n3)cc2C1 (stereo not shown) [Compound 9b]	6.8
CN1CCc2ccc(Nc3nccc(-c4cc(C#N)c5c(c4)C(C)(CO)CN5)n3)cc2CC1 (stereo not shown) [Compound 3]	1.4
COCCCn1ccc2c(Nc3nccc(-c4cc(C#N)c5c(c4)C(C)(CO)CN5)n3)cc(Cl)cc21 (stereo not shown) [Compound 6c]	34.8
CC1(C)CNc2c(C#N)cc(-c3ccnc(Nc4cccc5c4CNC5)n3)cc21 [Compound 2]	4.3
CNC(=O)CN1CCc2c(Nc3nccc(-c4cc(C#N)c5c(c4)C(C)(CO)CN5)n3)cc(Cl)cc21 (stereo not shown) [Compound 14]	3
CN(C)C(=O)C1COc2c(cc(Cl)cc2Nc2nccc(-c3cc(C#N)c4c(c3)[C@@](C)(CO)CN4)n2)C1 (stereo partly shown) [Compound 12]	14.1
CN(C)C(=O)C(=O)N1CCc2c(Nc3nccc(-c4cc(C#N)c5c(c4)[C@@](C)(CO)CN5)n3)cc(Cl)cc21 [Compound 19]	5
CC1(C)CNc2c(C#N)cc(-c3ccnc(Nc4cccc5c4CNCC5)n3)cc21 [Compound 6]	12.6

The remaining molecules from weak to strong by IC50, led by results:

IC50 [nM]	SMILES
363	CC(C)c1c(Nc2nccc(-c3cc(C#N)c4c(c3)[C@@](C)(CO)CN4)n2)nn2c1CN(C)CC2 [Compound 16b]
20.4	Cn1nc(Nc2nccc(-c3cc(C#N)c4c(c3)C(C)(CO)CN4)n2)c2c1CCC2 (stereo not shown) [Compound 5b]
17.4	CN1CCc2[nH]c(=O)c(Nc3nccc(-c4cc(C#N)c5c(c4)C(C)(CC(F)F)CN5)n3)cc2C1 (stereo not shown) [Compound 57]
10.5	Cc1c(Nc2nccc(-c3cc(C#N)c4c(c3)C(C)(CO)CN4)n2)cc(Cl)c2[nH]ccc12 (stereo not shown) [Compound 9c]
4.3	COc1nc2c(ccn2CC(=O)N(C)C)cc1Nc1nccc(-c2cc(C#N)c3c(c2)[C@@](C)(CO)CN3)n1 [Compound 10c]
4	CN1Cc2cc(Nc3nccc(-c4cc(C#N)c5c(c4)C(C)(CO)CN5)n3)nn2CC1=O (stereo not shown) [Compound 8b]
2.5	Cc1c(Nc2nccc(-c3cc(C#N)c4c(c3)[C@@](C)(CO)CN4)n2)ccc2c1CCN2C(=O)CN(C)C [Compound 15]
1.3	CN(C)CC(=O)N1CCc2c(Nc3nccc(-c4cc(C#N)c5c(c4)[C@@](C)(CO)CN5)n3)cc(Cl)cc21 [Compound 13]

test system: JJN-3 cells; assay: Antiproliferative activity on JJN-3 (NIK translocated) multiple myeloma cells (CellTiter-Glo); format: cell-based, human; details: Homo sapiens, JJN-3, 96 h, JJN-3 (NIK translocated) cells, 96 hr treatment, averaged values, read-out: JJN-3 Proliferation inhibition (IC50 (nM))
Procedure: (§1) Determination of Antiproliferative Activity on JJN-3 (NIK Translocated) and KMS12-BM (NIK WT) Multiple Myeloma Cells
(§2) All compounds tested were dissolved in DMSO and further dilutions were made in culture medium. Final DMSO concentration was 0.3% (v/v) in cell proliferation assays. Viability was assessed using CellTiter-Glo cell viability assay kit (Promega). The human JJN-3 and KMS12-BM cells (DSMZ) were cultured in RPMI 1640 medium supplemented with 2 mM L-glutamine, and 10% fetal calf serum (PAA). Cells were routinely kept as suspension cells at 37° C. in a humidified 5% CO2 atmosphere. Cells were passaged at a seeding density of 0.2×10^6/ml twice a week. Cells were seeded in black tissue culture treated 96-well plates (Perkin Elmer). Densities used for plating ranged from 15000 (JJN3) to 20000 (KMS12BM) cells per well in a total volume of […]. Drugs and/or solvents were added (15 μl) to a final volume of 150 μl. Following 96 hr of treatment, plates were removed from the incubator and allowed to equilibrate to room temperature for approx 10 min. 75 μl CellTiter-Glo reagent was added to each well that was then covered (Perkin Elmer Topseal) and shaken on plate shaker for 10 min. Luminescence was measured on a HTS Topcount (Perkin Elmer). Within an experiment, the results for each treatment were the mean of 2 replicate wells. For initial screening purposes, compounds were tested using a 9 point dilution curve (serial 1:3 dilutions). For each experiment, controls (containing no drug) and a blank incubation (containing cells read at the time of compound addition) were run in parallel. The blank value was subtracted from all control and sample values. For each sample, the mean value for cell growth (in relative light units) was expressed as a percentage of the mean value for cell growth of the control.

SMILES	IC50 [nM]
Cc1c(Nc2nccc(-c3cc(C#N)c4c(c3)[C@@](C)(CO)CN4)n2)cc(Cl)c2c1CCN2C(=O)CN(C)C [Compound 16]	26
CC1(CO)CNc2c(C#N)cc(-c3ccnc(Nc4ccc5c(c4)C(F)(F)CCO5)n3)cc21 (stereo not shown) [Compound 7]	48
CC1(CO)CNc2c(C#N)cc(-c3ccnc(Nc4ccc5c(c4)CC(CO)OC5)n3)cc21 (single isomer, unassigned) [Compound 5]	21
CN1CCn2nc(Nc3nccc(-c4cc(C#N)c5c(c4)C(C)(CO)CN5)n3)cc2C1 (stereo not shown) [Compound 9b]	204
CN1CCc2ccc(Nc3nccc(-c4cc(C#N)c5c(c4)C(C)(CO)CN5)n3)cc2CC1 (stereo not shown) [Compound 3]	~24
COCCCn1ccc2c(Nc3nccc(-c4cc(C#N)c5c(c4)C(C)(CO)CN5)n3)cc(Cl)cc21 (stereo not shown) [Compound 6c]	10
CC1(C)CNc2c(C#N)cc(-c3ccnc(Nc4cccc5c4CNC5)n3)cc21 [Compound 2]	112
CNC(=O)CN1CCc2c(Nc3nccc(-c4cc(C#N)c5c(c4)C(C)(CO)CN5)n3)cc(Cl)cc21 (stereo not shown) [Compound 14]	54
CN(C)C(=O)C(=O)N1CCc2c(Nc3nccc(-c4cc(C#N)c5c(c4)[C@@](C)(CO)CN5)n3)cc(Cl)cc21 [Compound 19]	6
CC1(C)CNc2c(C#N)cc(-c3ccnc(Nc4cccc5c4CNCC5)n3)cc21 [Compound 6]	263

Second part, the molecule after the results:

IC50 [nM]	SMILES
468	Cn1nc(Nc2nccc(-c3cc(C#N)c4c(c3)C(C)(CO)CN4)n2)c2c1CCC2 (stereo not shown) [Compound 5b]
11200	CN1CCc2[nH]c(=O)c(Nc3nccc(-c4cc(C#N)c5c(c4)C(C)(CC(F)F)CN5)n3)cc2C1 (stereo not shown) [Compound 57]
1180	Cc1c(Nc2nccc(-c3cc(C#N)c4c(c3)C(C)(CO)CN4)n2)cc(Cl)c2[nH]ccc12 (stereo not shown) [Compound 9c]
63	COc1nc2c(ccn2CC(=O)N(C)C)cc1Nc1nccc(-c2cc(C#N)c3c(c2)[C@@](C)(CO)CN3)n1 [Compound 10c]
1150	CN1Cc2cc(Nc3nccc(-c4cc(C#N)c5c(c4)C(C)(CO)CN5)n3)nn2CC1=O (stereo not shown) [Compound 8b]
89	Cc1c(Nc2nccc(-c3cc(C#N)c4c(c3)[C@@](C)(CO)CN4)n2)ccc2c1CCN2C(=O)CN(C)C [Compound 15]
18	CN(C)CC(=O)N1CCc2c(Nc3nccc(-c4cc(C#N)c5c(c4)[C@@](C)(CO)CN5)n3)cc(Cl)cc21 [Compound 13]

same assay, conditions: JJN-3 (NIK translocated) cells, 96 hr treatment, averaged values, read-out: JJN-3 Proliferation inhibition (IC50 (nM))

IC50 [nM]	SMILES
22	CN(C)C(=O)C1COc2c(cc(Cl)cc2Nc2nccc(-c3cc(C#N)c4c(c3)[C@@](C)(CO)CN4)n2)C1 (stereo partly shown) [Compound 12]

test system: KMS12-BM cells; assay: Antiproliferative activity on KMS12-BM (NIK WT) multiple myeloma cells (CellTiter-Glo); format: cell-based, human; details: 96 hr treatment, averaged values, read-out: KMS-12 Proliferation inhibition (IC50 (nM))
Procedure: as §1, §2

IC50 [nM]	SMILES
~6610	CN(C)C(=O)C1COc2c(cc(Cl)cc2Nc2nccc(-c3cc(C#N)c4c(c3)[C@@](C)(CO)CN4)n2)C1 (stereo partly shown) [Compound 12]

same assay, conditions: Homo sapiens, KMS-12-BM, 96 h, 96 hr treatment, averaged values, read-out: KMS-12 Proliferation inhibition (IC50 (nM))

SMILES	IC50 [nM]
Cc1c(Nc2nccc(-c3cc(C#N)c4c(c3)[C@@](C)(CO)CN4)n2)cc(Cl)c2c1CCN2C(=O)CN(C)C [Compound 16]	~339
CC1(CO)CNc2c(C#N)cc(-c3ccnc(Nc4ccc5c(c4)C(F)(F)CCO5)n3)cc21 (stereo not shown) [Compound 7]	525
CC1(CO)CNc2c(C#N)cc(-c3ccnc(Nc4ccc5c(c4)CC(CO)OC5)n3)cc21 (single isomer, unassigned) [Compound 5]	151
CN1CCn2nc(Nc3nccc(-c4cc(C#N)c5c(c4)C(C)(CO)CN5)n3)cc2C1 (stereo not shown) [Compound 9b]	1660
CN1CCc2ccc(Nc3nccc(-c4cc(C#N)c5c(c4)C(C)(CO)CN5)n3)cc2CC1 (stereo not shown) [Compound 3]	85
COCCCn1ccc2c(Nc3nccc(-c4cc(C#N)c5c(c4)C(C)(CO)CN5)n3)cc(Cl)cc21 (stereo not shown) [Compound 6c]	1620
CC1(C)CNc2c(C#N)cc(-c3ccnc(Nc4cccc5c4CNC5)n3)cc21 [Compound 2]	~177
CNC(=O)CN1CCc2c(Nc3nccc(-c4cc(C#N)c5c(c4)C(C)(CO)CN5)n3)cc(Cl)cc21 (stereo not shown) [Compound 14]	251
CN(C)C(=O)C(=O)N1CCc2c(Nc3nccc(-c4cc(C#N)c5c(c4)[C@@](C)(CO)CN5)n3)cc(Cl)cc21 [Compound 19]	~692
CC1(C)CNc2c(C#N)cc(-c3ccnc(Nc4cccc5c4CNCC5)n3)cc21 [Compound 6]	794

Results, then the molecule that gave them:

IC50 [nM]	SMILES
> 10000	Cn1nc(Nc2nccc(-c3cc(C#N)c4c(c3)C(C)(CO)CN4)n2)c2c1CCC2 (stereo not shown) [Compound 5b]
> 10000	CN1CCc2[nH]c(=O)c(Nc3nccc(-c4cc(C#N)c5c(c4)C(C)(CC(F)F)CN5)n3)cc2C1 (stereo not shown) [Compound 57]
5620	Cc1c(Nc2nccc(-c3cc(C#N)c4c(c3)C(C)(CO)CN4)n2)cc(Cl)c2[nH]ccc12 (stereo not shown) [Compound 9c]
> 10000	COc1nc2c(ccn2CC(=O)N(C)C)cc1Nc1nccc(-c2cc(C#N)c3c(c2)[C@@](C)(CO)CN3)n1 [Compound 10c]
6170	CN1Cc2cc(Nc3nccc(-c4cc(C#N)c5c(c4)C(C)(CO)CN5)n3)nn2CC1=O (stereo not shown) [Compound 8b]
96	Cc1c(Nc2nccc(-c3cc(C#N)c4c(c3)[C@@](C)(CO)CN4)n2)ccc2c1CCN2C(=O)CN(C)C [Compound 15]
~3550	CN(C)CC(=O)N1CCc2c(Nc3nccc(-c4cc(C#N)c5c(c4)[C@@](C)(CO)CN5)n3)cc(Cl)cc21 [Compound 13]
